From patent US7795390B2, “Biological substance nesfatin and its related substances and uses thereof” (Teijin Pharma Limited, priority 2005, dated 2010)

Legend:
ICR mice = experiment: Intraperitoneal administration of partial peptides of nesfatin-1 / nesfatin-1M30 / NUCB1-M30 to ICR mice, food intake; type: in vivo, mouse; settings: 0-3 hours
Procedure: Each peptide of nesfatin-1N23, nesfatin-1M30 and nesfatin-1C29 used was a synthetic peptide of which production was referred to Biologica Co., Ltd. and was purified by HPLC to a purity of 95% or higher. Each peptide was prepared in physiological saline so as to contain 50 nmol per 200 μl, which was used as the sample, and as the control sample physiological saline (Vehicle) alone was used. Using a tuberculin syringe equipped with a 25G needle, 200 μl each of the samples was administered once into the abdominal cavity of each mouse (5 animals per group), and the time of administration was immediately before the start (6 p.m.) of the dark period. Mice used were male ICR mice (Nippon SLC) and the housing condition was similar to those in Working Example 18.
Each mouse that received administration was placed in an individual cage, and during 0-3 hours after the administration the weight decreased of the pellet food was measured to determine the amount of food intake. For testing of significant difference, analysis of variance was used.
Each peptide was prepared in physiological saline so as to contain 10 pmol per 100 μl, which was used as the sample for administration, and as the control sample physiological saline (Vehicle) alone was used. The physiological saline as the control and the peptide samples prepared were intraperitoneally administered at 100 μl per mouse (6 animals per group). Mice used were male ICR mice (Nippon SLC) and the housing condition and the experimental condition were similar to those in Working Example 18.
Each of the prepared human nesfatin-1M30 and mouse NUCB1-M30 was prepared in physiological saline so as to contain 10 pmol per 100 μl, which was used as the sample for administration.
The physiological saline as the control and the peptide sample prepared were intraperitoneally administered at 100 μl per mouse (n=6 per group). Mice used were male ICR mice (Nippon SLC) and the housing condition and the experimental condition were similar to those in Working Example 18.

Wistar rats = experiment: Administration of nesfatin-1, nesfatin-2, nesfatin-3, nesfatin-2/3 into the third ventricle, amount of food intake; type: in vivo, rat; settings: for amount of food intake: 25 pmol into the third ventricle before dark period, 0-1 hr and 1-3 hr, vs control
Procedure: Samples used for intracerebral administration were PBS alone (vehicle group), or nesfatin-1, nesfatin-2, nesfatin-3 or nesfatin-2/3 prepared in Working Example 10 each dissolved in PBS, and 25 pmol was administered per individual into the third ventricle immediately before the dark period. Rats used were Wistar rats (purchased from Nippon SLC) and were housed as in Working Example 6, and among 8-9 week-old male Wistar rats, those individuals weighing 200-250 g were selected and used (N=5). The technique of intraventricular administration and the measurement of the amount of food intake in rats were carried out in a method similar to those in Working Example 6. In the measurement of the amount of food intake, the reduced amount of food at 1 hour after administration (0-1 hr) and 2 hours after administration (1-3 hrs) was determined as food intake.
In the same condition above, 1, 5 or 25 pmol of nesfatin-1 as a sample was administered per rat individual into the third ventricle immediately before the dark period. In this experiment, the amount of food intake was determined at 1 hour after administration (0-1 hr).
The experimental condition was similar to that in Working Example 12, and 5 pmol of nesfatin-1 was administered into the third ventricle of the rat brain immediately before the start of the dark period, the amount decreased of the food (the amount of food intake) during 1 hour immediately after administration (0-1 hr), during 2 hours from 1 hour after the administration (1-3 hr), during 3 hours from 3 hours after the administration (3-6 hr), and during 6 hours from 6 hours after the administration (6-12 hr) was measured as the amount of food intake. As the control group, the amount of food intake by individuals that received physiological saline alone was measured.
The experimental condition was similar to that in Working Example 12, and for a group that received 5 pmol of nesfatin-1 alone into the third ventricle of the rat brain immediately before the start of the dark period and a group that received 5 pmol of nesfatin-1 and 8 μg of anti-nesfatin-1 antibody (nesfatin-1 IgG), the amount of food intake for 1 hour after administration was measured and compared to that for the control group (physiological saline alone was administered). Also, for a group that received only leptin (Rat leptin: R & D Systems, 598-LP-01M) (1 μg) which is known to have an activity of suppressing food intake by intraventricular administration and a group that received leptin and anti-nesfatin-1 antibody, its effect on food intake was also studied.

[1] = 50 nmol per 200 μl ip, vs Vehicle
[2] = 10 pmol per 100 μl ip, Working Example 23, vs Vehicle
[3] = 10 pmol per 100 μl ip, partial peptides of nesfatin-1M30, vs saline

Molecule: nesfatin-1N23: amino acid numbers 1 to 23 of mouse nesfatin-1 (SEQ ID NO: 42) (VPIDVDKTKVHNTEPVENARIEP; listed as Mus musculus)
- amount of food intake (ICR mice; [1]): no significant decrease or enhancement in the amount of food intake

Molecule: mouse NUCB1-M30: site of mouse NUCB1 corresponding to nesfatin-1M30 (SEQ ID NO: 103) (PDTGLYYHRYLQEVINVLETDGHFREKLQA; listed as Mus musculus)
- amount of food intake (ICR mice; [2]): significant effect of suppressing food intake

Molecule: nesfatin-1C29: amino acid numbers 54 to 82 of mouse nesfatin-1 (SEQ ID NO: 43) (ADIEEIRSGRLSQELDLVSHKVRTRLDEL; listed as Mus musculus)
- amount of food intake (ICR mice; [1]): no significant decrease or enhancement in the amount of food intake

Molecule: human nesfatin-1M30: human nesfatin-1M30 (SEQ ID NO: 39), chemical synthesis (PDTGLYYDEYLKQVIDVLETDKHFREKLQK; listed as Homo sapiens)
- amount of food intake (ICR mice; [2]): significant effect of suppressing food intake

Molecule: N-LysGlnValIleGluValLeuGluThrAsp-C (KQVIEVLETD; listed as Mus musculus) [nesfatin-1M10M]
- amount of food intake (ICR mice; [3]): significant effect of suppressing food intake

Molecule: nesfatin-1M30: 30-amino acid partial peptide of mouse nesfatin-1 (SEQ ID NO: 41) (PDTGLYYDEYLKQVIEVLETDPHFREKLQK; listed as Mus musculus)
- amount of food intake (ICR mice; [2]): significant effect of suppressing food intake
- amount of food intake (ICR mice; [1]): significant decrease

Molecule: N-ValLeuGluThrAspProHisPheArgGluLysLeuGlnLys-C (VLETDPHFREKLQK; listed as Mus musculus) [nesfatin-1M14]
- amount of food intake (ICR mice; [3]): significant effect of suppressing food intake

Molecule: nesfatin-1M16: 16-amino acid partial peptide of mouse nesfatin-1M30 (SEQ ID NO: 71) (PDTGLYYDEYLKQVIE; listed as Mus musculus)
- amount of food intake (ICR mice; [3]): significant effect of suppressing food intake

B1: leptin: Rat leptin: R & D Systems, 598-LP-01M; known to suppress food intake by intraventricular administration (protein)
chain: VPIHKVQDDTKTLIKTIVTRINDISHTQSVSARQRVTGLDFIPGLHPILSLSKMDQTLAVYQQILTSLPSQNVLQIAHDLENLRDLLHLLAFSKSCSLPQTRGLQKPESLDGVLEASLYSTEVVALSRLQGSLQDILQQLDLSPEC
- amount of food intake for 1 hour after administration (Wistar rats; given alone into the third ventricle (nesfatin-1 5 pmol; leptin 1 μg), vs saline control): decreased

B2: nesfatin-2: 79-residue peptide, amino acid Nos. 109 to 187 of nesfatin (SEQ ID NO: 16) (peptide, listed as Rattus norvegicus)
chain: QEVGRLRMLIKAKLDALQDTGMNHHLLLKQFEHLNHQNPDTFESKDLDMLIKAATADLEQYDRTRHEEFKKYEMMKEHE
- amount of food intake (Wistar rats): did not exhibit any significant changes in the amount of food intake

B3: nesfatin-2/3: portion of the sequence consisting of nesfatin-2 and nesfatin-3 (SEQ ID NO: 47), cell-free protein synthesis (protein, listed as Rattus norvegicus)
chain: QEVGRLRMLIKAKLDALQDTGMNHHLLLKQFEHLNHQNPDTFESKDLDMLIKAATADLEQYDRTRHEEFKKYEMMKEHERREYLKTLSEEKRKEEEAKFAEMKRKHEDHPKVNHPGSKDQLKEVWEETDGLDPNDFDPKTFFKLHDVNNDGFLDEQELEALFTKELDKVYNPQNAEDDMIEMEEERLRMREHVMNEIDNNKDRLVTLEEFLRATEKKEFLEPDSWETLDQQQLFTEEELKEYESIIAIQESELKKKADELQKQKEELQRQHDHLEAQKQEYQQAVQQLEQKKFQQGIAPSGPAGELKFEPHT
- amount of food intake (Wistar rats): did not exhibit any significant changes in the amount of food intake

B4: nesfatin-3: 231 residues, amino acid Nos. 190 to 420 of nesfatin (SEQ ID NO: 17), cell-free protein synthesis, Met added (protein, listed as Rattus norvegicus)
chain: EYLKTLSEEKRKEEEAKFAEMKRKHEDHPKVNHPGSKDQLKEVWEETDGLDPNDFDPKTFFKLHDVNNDGFLDEQELEALFTKELDKVYNPQNAEDDMIEMEEERLRMREHVMNEIDNNKDRLVTLEEFLRATEKKEFLEPDSWETLDQQQLFTEEELKEYESIIAIQESELKKKADELQKQKEELQRQHDHLEAQKQEYQQAVQQLEQKKFQQGIAPSGPAGELKFEPHT
modifications: N-terminal Met added
- amount of food intake (Wistar rats): did not exhibit any significant changes in the amount of food intake
